Experimental data reported in US11293023B2, “Tunable endogenous protein degradation” (Dana-Farber Cancer Institute, Inc., priority 2015, dated 2022).
“Also recorded” adds a separate entry of the source.

Key:
Type in all cases: cell-based
FKBP*-KRASG12V = assay: Immunoblot of FKBP*-KRASG12V (dTAG-KRAS) degradation in NIH3T3 cells; conditions: for degradation of FKBP*-KRASG12V: 24 hours
Experimental: (§1) FIG. 11 is an immunoblot of NIH3T3 cells expressing KRASG12V allele fused to FKBP* in the N-terminus or C-terminus. Cells were treated with 500 nM dFKBP7 for the indicated time. Cells were harvested and immunoblotted to measure degradation of FKBP*-KRASG12V and downstream surrogates of KRAS signaling (e.g. pMEK and pAKT).
(§2) FIG. 12 is an immunoblot of NIH3T3 cells expressing FKBP* fused to the N-terminus of KRASG12V treated with 1 uM of the indicated dFKBP heterobifunctional compounds for 24 hours. Cells were harvested and immunoblotted to measure degradation of FKBP*-KRASG12V and downstream surrogates of KRAS signaling (e.g. pMEK and pAKT).
as §2, with “FIG. 13” for “FIG. 12”, “with” for “with 1 uM of”, “indicated concentrations of dFKBP13” for “indicated dFKBP heterobifunctional compounds”
(§3) FIG. 14 is an immunoblot of NIH3T3 cells expressing FKBP* fused to the N-terminus of KRASG12V treated with 1 uM dFKBP13 for the indicated time. Cells were harvested and immunoblotted to measure degradation of FKBP*-KRASG12V and downstream surrogates of KRAS signaling (e.g. pMEK and pAKT).
FIG. 15 is an immunoblot of NIH3T3 cells expressing dTAG-KRASG12V pretreated with 1 uM Carfilzomib (proteasome inhibitor), 0.5 uM MLN4924 (neddylation inhibitor), and 10 uM Lenalidomide (CRBN binding ligand) for two hours prior to a 4 hour treatment with dFKBP13.
(§4) Cells were treated with 500 nM dFKBP7 for the indicated time. Cells were harvested and immunoblotted to measure degradation of FKBP*-KRAS and downstream surrogates of KRAS signaling (e.g. pMEK and pAKT).
(§5) In an effort to identify the best performing dFKBP molecule, dTAG-KRAS degradation was profiled across a series of dFKBP molecules. Western blotting of NIH3T3 cells expressing dTAG-KRASG12V were treated with 1 μM of the indicated dFKBP heterobifunctional compounds for 24 hours. Cells were harvested and immunoblotted to measure degradation of FKBP*-KRAS and downstream surrogates of KRAS signaling (e.g. pMEK and pAKT).
(§6) Western blotting of NIH3T3 cells expressing FKBP* fused to the N-terminus of KRAS treated with the indicated concentrations of dFKBP13 for 24 hours. Cells were harvested and immunoblotted to measure degradation of FKBP*-KRAS and downstream surrogates of KRAS signaling (e.g. pMEK and pAKT).
(§7) To evaluate the kinetic control of targeted degradation of dTAG-KRAS, dFKBP13 was administered by increased duration. Western blotting of NIH3T3 cells expressing FKBP* fused to the N-terminus of KRAS treated with 1 μM dFKBP13 for the indicated time. Cells were harvested and immunoblotted to measure degradation of FKBP*-KRAS and downstream surrogates of KRAS signaling (e.g. pMEK and pAKT).
NIH3T3 cells (CRBN-WT) were engineered to express dTAG-KRASG12V. Cells were pretreated with 1 uM Carfilzomib (proteasome inhibitor), 0.5 uM MLN4924 (neddylation inhibitor), and 10 uM Lenalidomide (CRBN binding ligand) for two hours prior to a 4 hour treatment with dFKBP13. Lysates were prepared and western immunoblot analysis performed. […] Pre-treatment with the NAE1 inhibitor MLN4924 rescued dTAG-KRASG12V expression establishing dependence on CRL activity, as expected for cullin-based ubiquitin ligases that require neddylation for processive E3 ligase activity. Pre-treatment with excess Lenalidomide abolished dFKBP13-dependent dTAG-KRASG12V degradation, confirming the requirement of CRBN engagement for degradation.

[1] = system: NIH3T3 cells expressing dTAG-KRASG12V; assay: Propidium iodide cell cycle analysis of NIH3T3 cells expressing dTAG-KRASG12V; conditions: 48 hours
Experimental: FIG. 20 is a bar graph illustrating NIH3T3 cells expressing dTAG-KRASG12V treated with dFKBP7 and dFKBP13 for 48 hours to induce targeted dTAG-KRASG12V degradation. Fixed cells were stained with propidium iodide and cell cycle analysis was performed.
NIH3T3 cells were engineered to express dTAG-KRASG12V. NIH3T3 cells expressing dTAG-KRASG12V were treated with dFKBP7 and dFKBP13 for 48 hours to induce targeted dTAG-KRASG12V degradation. Fixed cells were stained with propidium iodide and cell cycle analysis was performed.

[2] = system: KRAS signaling (pMEK and pAKT); assay: Immunoblot of downstream surrogates of KRAS signaling in NIH3T3 cells expressing dTAG-KRAS
Experimental: as §1, §2
as §3, with “13” for “14”, “the indicated concentrations of” for “1 uM”, “24 hours.” for “the indicated time.”
as §3, §4, §5, §6, §7
(§8) The dFKBP13 heterobifunctional compound potently degrades dTAG-KRAS mutant alleles. NIH3T3 cells were engineered to express KRAS alleles either WT or mutant forms of amino acid glycine 12 (G12C, G12D, and G12V). Western blotting of NIH3T3 cells expressing dTAG fused to the N-terminus of KRAS alleles were treated with 1 uM of dFKBP13 for 24 hours. Cells were harvested and immunoblotted to measure degradation of dTAG-KRAS and downstream surrogates of KRAS signaling (e.g. pMEK and pAKT).
as §8, with “express” for “express KRAS alleles”, “KRAS alleles (G13D, Q61L,” for “forms of amino acid glycine 12 (G12C, G12D,”, “Q61R).” for “G12V).”

[3] = system: indicated proteins fused to mutant FKBP* with an HA tag; assay: Immunoblot of proteins fused to FKBP* in MV4;11 leukemia cells; conditions: MV4;11 cells, 16 hours, indicated concentrations
From the text: Immunoblots of MV4;11 leukemia cells expressing indicated proteins fused to mutant FKBP* with an HA tag.
To test the general utility of the dTAG technology across several protein types, the indicated proteins fused to the dTAG in MV4;11 leukemia cells were expressed.

CC[C@H](C(=O)N1CCCC[C@H]1C(=O)O[C@H](CCc1ccc(OC)c(OC)c1)c1cccc(OCC(=O)NCCCCCCOc2cccc3c2C(=O)N(C2CCC(=O)NC2=O)C3=O)c1)c1cc(OC)c(OC)c(OC)c1 (stereo partly drawn) [dFKBP13]
degradation of FKBP*-KRASG12V (FKBP*-KRASG12V; NIH3T3, 1 uM): potent degradation | time to degradation of FKBP*-KRASG12V (FKBP*-KRASG12V; NIH3T3, 1 uM, post treatment): ≤ 1 h | degradation of FKBP*-KRASG12V (FKBP*-KRASG12V; NIH3T3, indicated concentrations): potent degradation | mechanism of dTAG-KRASG12V degradation (FKBP*-KRASG12V; NIH3T3 CRBN-WT, 4 hour treatment after inhibitor pretreatment): CRBN- and proteasome-dependent degradation | cell cycle profile (S-phase entry) [1]: diminished S-phase entry | downstream signaling (pMEK and pAKT) ([2]; NIH3T3 FKBP*-KRASG12V, 1 uM, 24 hours): inhibition of downstream signaling | time to inhibition of downstream signaling ([2]; NIH3T3 FKBP*-KRASG12V, 1 uM, post treatment): ≤ 1 h | downstream signaling (pMEK and pAKT) ([2]; NIH3T3 dTAG-KRAS WT, G12C, G12D, G12V, 1 uM, 24 hours): potently inhibits downstream signaling | downstream signaling (pMEK and pAKT) ([2]; NIH3T3 dTAG-KRAS WT, G13D, Q61L, Q61R, 1 uM, 24 hours): potently inhibits downstream signaling | IC50 ([2]; read-out: IC50 of inhibition of downstream signaling, NIH3T3 FKBP*-KRASG12V, 24 hours): > 100 nM | degradation of proteins fused to dTAG [3]: degradation was observed with nanomolar concentrations

CC[C@H](C(=O)N1CCCC[C@H]1C(=O)O[C@H](CCc1ccc(OC)c(OC)c1)c1cccc(OCC(=O)NCCCOCCOCCOCCCNC(=O)COc2cccc3c2C(=O)N(C2CCC(=O)NC2=O)C3=O)c1)c1cc(OC)c(OC)c(OC)c1 (stereo partly drawn) [dFKBP7]
degradation of N-terminal dTAG-KRAS (FKBP*-KRASG12V) (FKBP*-KRASG12V; NIH3T3, 500 nM, indicated time): potent degradation; also recorded: degraded | cell cycle profile (S-phase entry) [1]: diminished S-phase entry | p-AKT signal ([2]; NIH3T3 N-terminal dTAG-KRAS, 500 nM, indicated time): downstream decrease in p-AKT signal | degradation of proteins fused to dTAG [3]: degradation was observed with nanomolar concentrations
